Active and inactive are the calls of the source.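 How the source made its calls: active means compounds giving half or more protection of infected cells from virus-caused growth loss, again on retest; inactive means the rest.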
Test system: CEM cells HIV-1 protection, formazan growth assay
Assay: NCI AIDS Antiviral Assay
Details: for IC50: measured here: growth of uninfected CEM cells
Outline: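 Human CEM cells, uninfected and HIV-1-infected, received five drug concentrations, and growth was read by soluble formazan assay. Compounds giving at least 50% protection were retested; reproducible 100% protection defined confirmed active.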

SMILES: Cc1cc(NS(=O)(=O)c2ccc(NC(=O)c3ccc(Cl)c4c(Nc5ccc(S(N)(=O)=O)cc5)c5ccccc5nc34)cc2)no1
- EC50: > 38.9 µM
- IC50: 26.3 µM

SMILES: Cc1cc(Br)cc(C)c1NC(=O)C(=O)C(C(=O)c1ccc(Cl)c(Cl)c1)C1OC(=O)c2ccccc21 (centres undefined)
- EC50: > 49 µM
- IC50: 6.76 µM

SMILES: CCCCC12C3CC4C5C(C)/C(=C6\OC(=O)C(C)=C6OC)OC5(O3)C1CCN42 (centres undefined)
- EC50: > 50.1 µM
- IC50: > 50.1 µM

SMILES: Cc1oc2c(c1C(=O)c1ccccc1)C(=O)c1ccccc1C2=O
- EC50: > 58.9 µM
- IC50: 11.7 µM

SMILES: COc1ccc(C2c3cc4c(cc3OC(Nc3ccccc3)C2C)OCO4)cc1 (centres undefined)
- EC50: > 200 µM
- IC50: 24.5 µM

SMILES: CCCCCCCCCCCCCCCCNc1ccn(C2CC(OP(=O)(O)OCC3CCC(n4ccc(N)nc4=O)O3)C(CO)O2)c(=O)n1 (centres undefined)
- EC50: 1 µM
- IC50: 97.7 µM

SMILES: O=Cc1ccccc1OCCC[P+](c1ccccc1)(c1ccccc1)c1ccccc1
- EC50: > 200 µM
- IC50: 2.51 µM

SMILES: COc1cccc2c1C(CO)N1C(C#N)C3CC(C(=O)O)C(C1C2)N3C (centres undefined)
- EC50: > 0.355 µM
- IC50: 0.0372 µM

SMILES: CCOC(=O)Cc1cc(=O)oc2cc(O)ccc12
- EC50: > 200 µM
- IC50: 166 µM

SMILES: Cc1nc2c(s/c(=N\N)n2-c2ccccc2)c(=O)n1C
- EC50: > 13.2 µM
- IC50: > 13.2 µM

SMILES: COc1c2occc2c(N=Cc2ccncc2)c2ccc(=O)oc12
- EC50: > 39.8 µM
- IC50: > 39.8 µM

SMILES: Cc1c(C)c2ccc(O)cc2[nH]c1=O
- EC50: > 200 µM
- IC50: 182 µM

SMILES: C[C@H](CCC1=NCCN1)[C@H]1CC[C@H]2[C@@H]3[C@H](O)C[C@@H]4C[C@H](O)CC[C@]4(C)[C@H]3CC[C@]12C
- EC50: > 200 µM
- IC50: 24 µM

SMILES: Cc1ccc(C)c(NC(=O)C(=O)CC(=O)c2cccc3ccccc23)c1
- EC50: > 105 µM
- IC50: > 105 µM

SMILES: Cc1ccc(-c2cc(=O)c(=O)[nH][nH]2)cc1
- EC50: > 200 µM
- IC50: > 200 µM

SMILES: COc1ccc(/C(O)=C/c2nc3ccccc3n2C)cc1
- EC50: > 178 µM
- IC50: 74.1 µM

SMILES: CNS(=O)(=O)NN(C)S(=O)(=O)c1ccccc1
- EC50: > 891 µM
- IC50: 148 µM

SMILES: [N-]=[N+]=CC(=O)OCC1SCCCS1
- EC50: > 200 µM
- IC50: > 200 µM

SMILES: CCCC(=O)Nc1ccc(C2=NNC(=O)C3CC23)cc1 (centres undefined)
- EC50: > 200 µM
- IC50: > 200 µM

SMILES: O=C(/C=C1/Nc2ccc([N+](=O)[O-])cc2NC1O)c1cccc([N+](=O)[O-])c1 (centres undefined)
- EC50: > 20.4 µM
- IC50: > 20.4 µM

SMILES: O=C(O)CN1CCSc2ccccc2CN(CC(=O)O)CCSc2ccccc2C1
- EC50: > 562 µM
- IC50: > 562 µM

SMILES: CCCCN(CC)C(=O)COc1cc2c(O)c3c(O)c(C)c4c(c13)C(=O)C(C)(O/C=C\C(OC)C(C)C(OC(C)=O)C(C)C(O)C(C)C(O)C(C)/C=C\C=C(\C)C(=O)N2)O4 (centres undefined)
- outcome: inactive

SMILES: O=Cc1cn(CCCCCCCCn2cc(C=O)c3ccccc32)c2ccccc12
- EC50: > 200 µM
- IC50: > 200 µM

SMILES: CC1CN(c2cc3c(cc2F)c(=O)c(C(=O)O)cn3-c2ccc(N3CCN(C)CC3)cn2)CC(C)N1 (centres undefined)
- EC50: > 145 µM
- IC50: 123 µM

SMILES: COc1ccc(C(c2c(O)c3ccccc3oc2=O)N2CCOCC2)c(OC)c1 (centres undefined)
- EC50: > 200 µM
- IC50: 91.2 µM

SMILES: CC(C)(C)c1nc2c(o1)C(=Nc1ccc(F)cc1)c1ccccc1C2=O
- outcome: inactive

SMILES: CCOC(=O)NN(C(=O)OCC)c1ccc(N=Nc2ccc(OC)cc2)n1C
- EC50: > 200 µM
- IC50: 26.9 µM

SMILES: O=C(Nc1ccccc1-c1nc2ccccc2[nH]c1=O)c1ccccc1
- EC50: > 52.5 µM
- IC50: 29.5 µM

SMILES: CN(C)c1nc2n(CCO)c(-c3ccccc3)c(-c3ccccc3)nc-2c(=O)n1
- EC50: 30.9 µM
- IC50: > 100 µM

SMILES: CCC(=O)NCC1CCCN2CCCCC12 (centres undefined)
- EC50: > 200 µM
- IC50: > 200 µM

SMILES: O=C1NC(c2ccccc2)C1N(Cc1ccccc1)Cc1ccccc1 (centres undefined)
- EC50: > 200 µM
- IC50: > 200 µM

SMILES: CC(C)CCC[C@@H](C)C1CCC2[C@@H]3CC=C4C[C@@H](OC(=O)CCC(=O)NCC[N+](C)(C)CCCS(=O)(=O)[O-])CC[C@]4(C)C3CC[C@@]21C (some centres undefined)
- outcome: inactive

SMILES: Clc1cccc2[nH]ncc12
- EC50: > 200 µM
- IC50: > 100 µM

SMILES: CCOC(=O)/C(=C\c1ccccc1Cl)P(=O)(OCC)OCC
- EC50: > 20.9 µM
- IC50: 11.7 µM

SMILES: CCCCC1=C(C(=O)N2CCOCC2)C2(OCCO2)C1Cl (centres undefined)
- EC50: > 58.9 µM
- IC50: 10 µM

SMILES: COc1c(Cl)cc(Cc2cc(C(=CCC[C@H]3CC[C@@]4(C)[C@@H](CC[C@@H]5[C@@H]4CC[C@]4(C)[C@@H](C(C)CCCC(C)C)CC[C@@H]54)C3)c3cc(Cc4cc(Cl)c(OC)c(C(=O)O)c4)c(OC)c(C(=O)O)c3)cc(C(=O)O)c2OC)cc1C(=O)O (some centres undefined)
- EC50: 16.2 µM
- IC50: 107 µM

SMILES: COc1c(OC(C)C)cc2cc(O)c(C(=O)NC3Cc4ccc(c(Cl)n4)O[C@@H]4C=C5C#C/C(=C\C#CC6OC56C4OC4CC(C)(O)C(O)C(C)O4)C(OC4CC(O)C(N(C)C)C(C)O4)COC3=O)cc2c1OC (some centres undefined)
- outcome: inactive

SMILES: CCN(CC)c1ccc2cc(S(=O)(=O)c3ccccc3)c(=O)oc2c1
- outcome: inactive

SMILES: COC1(OC)c2ccccc2C2(O)c3ccccc3C(=O)C12 (centres undefined)
- outcome: inactive

SMILES: CC1CCCN2C(=O)CN(Cc3ccccc3)CC(=O)N12 (centres undefined)
- outcome: inactive

SMILES: c1cc(CN2CCNCCNCCNCC2)cc(CN2CCNCCNCCNCC2)c1
- EC50: > 200 µM
- IC50: > 200 µM

SMILES: COCn1c(C(=O)c2ccccc2)c(C)c(=O)[nH]c1=O
- EC50: 70.8 µM
- IC50: > 200 µM

SMILES: CCCC#CC(O)(C(=O)OC1CCN(C)CC1)C1CCCCC1 (centres undefined)
- EC50: > 200 µM
- IC50: > 200 µM

SMILES: COc1cc(/C=C2\S/C(=N/Nc3nc(-c4ccc(Br)cc4)cs3)NC2=O)cc(OC)c1OC
- EC50: > 200 µM
- IC50: 17 µM

SMILES: Cc1cccc(C)c1NC(=O)C1C(=O)N(c2c(C)cccc2C)C(=O)/C1=N\NC(N)=S (centres undefined)
- EC50: > 22.9 µM
- IC50: > 22.9 µM

SMILES: C=C[C@@]1(C)CC2(C=C(CO)C(O)O2)Oc2c1c(=O)oc1cccc(C)c21 (some centres undefined)
- EC50: > 200 µM
- IC50: 3.02 µM

SMILES: CC(=O)Nc1c(C#N)c2n(c1C(=O)Nc1ccccc1)CCC2
- EC50: > 200 µM
- IC50: > 200 µM

SMILES: O=c1[nH]c(Cc2ccccc2)nc2c1sc1nc3ccccc3n12
- EC50: > 200 µM
- IC50: > 200 µM

SMILES: Cc1nc2ccccc2c(N)c1-c1cc(C)c2c(C)nc3ccccc3c2n1
- EC50: > 200 µM
- IC50: 3.89 µM

SMILES: COc1ccc(C(=O)/C=C/c2ccc(OCCSCCCCCCCCCCSCCOc3ccc(/C=C/C(=O)c4ccc(OC)cc4)cc3)cc2)cc1
- EC50: > 200 µM
- IC50: > 200 µM

SMILES: O=S(O)c1cc(Cl)c(O)c(Cl)c1
- outcome: inactive

SMILES: CCOC(=O)c1c(-c2cc(OC)c(OC)c(OC)c2)csc1N
- EC50: > 200 µM
- IC50: 12 µM

SMILES: COc1ccc(NC(=O)CC(=O)N2N=C(C)C(N=Nc3ccc(C(=O)O)cc3)C2=O)cc1 (centres undefined)
- EC50: > 200 µM
- IC50: 95.5 µM

SMILES: O=C1Oc2cc3c(c4cccc1c24)OCN(c1ccccc1)C3
- EC50: > 33.1 µM
- IC50: 24.5 µM

SMILES: CN(N=O)C(N)=NC(=O)c1ccccc1
- EC50: > 200 µM
- IC50: 141 µM

SMILES: CC1CC/C(=C\c2ccc(F)cc2)C(=O)/C1=C/c1ccc(F)cc1 (centres undefined)
- EC50: > 19.5 µM
- IC50: 9.33 µM

SMILES: Nc1ccc2c(O)c(N=Nc3ccc(-c4ccc(N=Nc5c(S(=O)(=O)O)cc6cc(S(=O)(=O)O)c(N=Nc7cc(Cl)ccc7Cl)c(N)c6c5O)cc4)cc3)c(S(=O)(=O)O)cc2c1
- outcome: inactive

SMILES: CCOC(=O)[C@]12C3C=CC(C3)C1C(=O)C1OC12 (some centres undefined)
- EC50: > 562 µM
- IC50: > 562 µM

SMILES: CC12OC(=O)C(C(N)=O)=C1C=C(c1ccccc1)CC2c1ccccc1 (centres undefined)
- EC50: > 200 µM
- IC50: 33.1 µM
